# Reference: patent US12617777B2, “GPR84 antagonists and uses thereof” (Liminal BioSciences Limited, priority 2021, dated 2026)
# Biological target: T1, human GPR84 receptor (Homo sapiens, UniProt Q9NQS5)
# T1 construct: host or cells: HEK293, transient transfection
# Assay: Gαi biosensor BRET assay in HEK293 cells (antagonism of ZQ-16)
# Format: cell-based
# Settings: for inhibition at 25 µM: HEK293, single concentration 25 μM (designated I); for inhibition at 2 µM: HEK293, single concentration 2 μM (designated A); for IC50: HEK293 cells, antagonism of 200 nmol/L ZQ-16; for inhibition at 10 µM: HEK293, single concentration 10 μM (designated F)
# In short: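 HEK293 cells transiently expressing human GPR84, Gαi2-Rluc8, GFP10-Gγ2 and Gβ1, in Tyrode's buffer pH 7.5. Compounds preincubated 5 min at 37° C, then 200 nmol/L ZQ-16 for 5 min at room temperature; coelenterazine 400A 5 μmol/L. BRET2 acceptor/donor ratio, background- and vehicle-corrected net BRET.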
# T1 sequence (Q9NQS5 whole entry): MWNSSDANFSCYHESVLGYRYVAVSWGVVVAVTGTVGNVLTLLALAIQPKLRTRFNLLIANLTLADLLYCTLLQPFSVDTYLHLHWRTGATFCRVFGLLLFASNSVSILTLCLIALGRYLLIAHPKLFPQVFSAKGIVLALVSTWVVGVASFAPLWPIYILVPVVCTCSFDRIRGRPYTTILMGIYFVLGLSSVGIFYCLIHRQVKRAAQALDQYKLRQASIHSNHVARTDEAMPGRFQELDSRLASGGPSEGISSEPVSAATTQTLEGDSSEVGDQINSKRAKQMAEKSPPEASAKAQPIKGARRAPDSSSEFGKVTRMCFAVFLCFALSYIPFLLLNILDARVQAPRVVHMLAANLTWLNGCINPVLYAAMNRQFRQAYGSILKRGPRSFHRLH
IC50 [nM],inhibition at 10 µM [%],SMILES,also measured
≤ 300,,CC1(C)COC(Cn2cc(-c3ncc(C#CCOC4CC4)cc3OC3CC3)nn2)OC1 [Compound I-758],inhibition at 2 µM: > 75%
300 to 1000,50 to 75,Cc1cc(C#CC2CC2)cnc1-c1cn(CC2OCC(F)(F)CO2)nn1 [Compound I-713],
,> 75,Cc1cc(C#CC2CC(F)(F)C2)ccc1-c1cn(CC2CCCCO2)nn1 (stereo not drawn) [Compound I-640],
1000 to 3000,,CC(C)Oc1cc(C#CC2CC(F)(F)C2)cnc1-c1cn(CC2CCCCO2)nn1 (stereo not drawn) [Compound I-649],inhibition at 2 µM: > 75%
,> 75,CC1(C)COC(Cn2cnc(-c3ncc(C#CCN4CC(C)(C)C4)cc3OC3CC3)c2)OC1 [Compound I-845],
,50 to 75,CCOCC#Cc1cnc(-c2cn(CC3OCC(C)(C)CO3)nn2)c(OC(C)C)c1 [Compound I-838],
≤ 300,> 75,CC1(C)COC(Cn2cc(-c3ncc(C#CCN4CC(C)(CO)C4)cc3OC3CC3)nn2)OC1 [Compound I-799],
300 to 1000,> 75,Cc1cc(N2CCN([C@@H](C)c3ccccn3)CC2)ccc1-c1cn(CC2OCC(C)(C)CO2)nn1 [Compound I-716],
,≤ 25,Cc1cc(OCC(F)(F)F)cnc1-c1cn(CC2OCC(C)(C)CO2)nn1 [Compound I-638],
,≤ 25,"Cc1ccc(C#CC2CC2)cc1S(=O)(=O)c1cn(CC2OCC(C)(C)CO2)nn1 [Compound I-783, 4-((5-(cyclopropylethynyl)-2-methylphenyl)sulfonyl)-1-((5,5-dimethyl-1,3-dioxan-2-yl)methyl)-1H-1,2,3-triazole]",
300 to 1000,,COC(c1cn(CC2CCCCO2)cn1)c1cc(C#CC2CC2)ccc1C (stereo not drawn) [Compound I-646],inhibition at 2 µM: > 75%
≤ 300,> 75,CN(C)c1cc(N2CC(C)(CO)C2)ccc1-c1cn(CC2OCC(C)(C)CO2)nn1 [Compound I-654],
,25 to 50,Cc1cc(N2CCN(Cc3ccccn3)C(=O)C2)ccc1-c1cn(CC2OCC(C)(C)CO2)nn1 [Compound I-752],
≤ 300,> 75,CC1(C)COC(Cn2cc(-c3ccc(C#CCN4CC(C)(C)C4)cc3OC3CC3)nn2)OC1 [Compound I-788],
,≤ 25,Cc1cc(N2CC3(CN(c4cccnc4)C3)C2)ccc1-c1cn(CC2CCCCO2)nn1 (stereo not drawn) [Compound I-629],
,≤ 25,Cc1ccc(C#N)cc1N(C)c1cn(CC2OCC(C)(C)CO2)nn1 [Compound I-811],
,50 to 75,FC1(F)CC(C#Cc2cnc(-c3cn(CC4OCC5(CC5)CO4)nn3)c(OC3CC3)c2)C1 (stereo not drawn) [Compound I-862],
300 to 1000,> 75,Cc1ccccc1-c1cn(CC#Cc2cnc(-c3cn(CC4CCCCO4)nn3)c(C)c2)nn1 (stereo not drawn) [Compound I-734],
300 to 1000,,Cc1cc(C#CCNC2CC2)ccc1-c1cn(CC2OCC(C)(C)CO2)cn1 [Compound I-820],inhibition at 2 µM: > 75%
≤ 300,,Cc1cc(N2CC(C)(CNc3ccccn3)C2)ccc1-c1cn(CC2OCC(C)(C)CO2)nn1 [Compound I-673],inhibition at 2 µM: > 75%
,50 to 75,CC1(C)COC(Cn2cc(-c3cn(CC4OCC(C)(C)CO4)nn3)nn2)OC1 [Compound I-827],
300 to 1000,> 75,Cc1cc(C#CCNC2CC2)ccc1-c1cn(CC2OCC(C)(C)CO2)nn1 [Compound I-697],
≤ 300,,Cc1cc(C#CCn2cc(-c3ccc(N(C)C)cc3)nn2)cnc1-c1cn(CC2CCCCO2)nn1 (stereo not drawn) [Compound I-712],inhibition at 2 µM: > 75%
≤ 300,> 75,CC(C)Oc1cc(C#CC2CC2)cnc1-c1cn(C[C@H]2CCCCO2)nn1 [Compound I-659],
300 to 1000,,Cc1ccc(C#CC2CC2)cc1C(CC(F)(F)F)c1cn(CC2OCC(C)(C)CO2)nn1 (stereo not drawn) [Compound I-681],inhibition at 2 µM: > 75%
,50 to 75,Cc1cc(C#CC2CC2)ccc1-c1cn(CC2OCC(F)(F)CO2)nn1 [Compound I-670],
1000 to 3000,> 75,Cc1cc(N2CCN(Cc3ccccn3)CC2)ccc1-c1cn(C[C@H]2CCCCO2)cn1 [Compound I-671],

# Further lines, the compound ahead of its results:
SMILES,IC50 [nM],inhibition at 10 µM [%],also measured
C(#CC1CC1)c1ccc(-c2cn(CC3CCc4ccccc4O3)nn2)cc1 (stereo not drawn) [Compound I-41],,,inhibition at 25 µM: ≤ 25%
COC(=O)NCC#Cc1cnc(-c2cn(CC3CCCCO3)nn2)c(C)c1 (stereo not drawn) [Compound I-573],,> 75,
Cc1cc(N2CCN(Cc3ncco3)CC2)ccc1-c1cn(CC2CCCCO2)nn1 (stereo not drawn) [Compound I-579],,> 75,
Cc1cc(C#CC2CC2)ccc1-c1cn(CC2CNCCO2)nn1 (stereo not drawn) [Compound I-180],,≤ 25,
Cc1ccc(C#CC2CC2)nc1-c1cn(CC2CCCCO2)nn1 (stereo not drawn) [Compound I-479],,≤ 25,
Cc1cc(C#CC2CC2)ccc1-c1cn(CC2CNC(=O)O2)nn1 (stereo not drawn) [Compound I-458],,≤ 25,
Cc1cc(N2CC(C)(N(C)C)C2)ccc1-c1cn(CC2CCCCO2)nn1 (stereo not drawn) [Compound I-470],,≤ 25,
O=c1oc(CC2CCCCO2)nn1Cc1ccc(C#CC2CC2)cc1 (stereo not drawn) [Compound I-19],,> 75,
Cc1cc(C#CC2CC2)ccc1-n1nc(CC2CCCCO2)oc1=O (stereo not drawn) [Compound I-12],,25 to 50,
Cc1cc(C#CCNC(C)(C)C)ccc1-c1cn(CC2CCCCO2)nn1 (stereo not drawn) [Compound I-267],,25 to 50,
Cc1cc(C#CC2CC2)ccc1-c1cn(CC2CCCC(=O)N2)nn1 (stereo not drawn) [Compound I-516],,≤ 25,
Cc1ccc(C#CC2CC2)cc1-c1cn(CC2OCCCC2(C)C)nn1 (stereo not drawn) [Compound I-568],,≤ 25,
Cc1cc(C#CC2CC2)ccc1-c1cn(Cc2ncco2)nn1 [Compound I-143],,≤ 25,
Cc1ccc(C#CC2CC2)cc1N(C)c1cn(CC2OCC3(CC3)CO2)nn1 [Compound I-842],,,inhibition at 2 µM: 50 to 75%
Cc1cc(C#CC2CC2)ccc1-c1cn(CC2CC(C)(C)O2)nn1 (stereo not drawn) [Compound I-197],,50 to 75,
Cc1cc(C2CCN(c3ccccn3)CC2)ccc1-c1cn(CC2CCCCO2)nn1 (stereo not drawn) [Compound I-583],,≤ 25,
Cc1cc(N2CCC2)ccc1-c1cn(CC2CCCCO2)nn1 (stereo not drawn) [Compound I-157],,50 to 75,
Cc1ccc(C#CC2CC2)cc1C(=O)c1cn(CC2CCCCO2)nn1 (stereo not drawn) [Compound I-591],300 to 1000,> 75,
CC1(C)CN(c2ccc(-c3cn(CC4CCCCO4)nn3)c(F)c2)C1 (stereo not drawn) [Compound I-379],,> 75,
Cc1cc(C#CCO)cnc1-c1cn(C[C@H]2CCCCO2)nn1 [Compound I-272],,50 to 75,
CC(C)c1cc(N2CC(C)(C)C2)cnc1-c1cn(CC2CC(C)(C)O2)nn1 (stereo not drawn) [Compound I-600],1000 to 3000,> 75,
CCc1cc(N2CC(C)(C)C2)cnc1-c1cn(CC2CCCCO2)nn1 (stereo not drawn) [Compound I-260],,50 to 75,

SMILES,IC50 [nM],inhibition at 10 µM [%],also measured
Cc1cccc(-c2cn(CC#Cc3ccc(-c4cn(CC5CCCCO5)nn4)c(C)c3)nn2)c1 (stereo not drawn) [Compound I-492],≤ 300,> 75,
Cc1cc(C#CC2CC2)ccc1-c1cn(CC2CCCC(C)(C)O2)nn1 (stereo not drawn) [Compound I-610],,,inhibition at 2 µM: ≤ 25%
COC(=O)C1CCCN1CC#Cc1ccc(-c2cn(CC3CCCCO3)nn2)c(C)c1 (stereo not drawn) [Compound I-233],,50 to 75,
Cc1ccc(C#CC2CC2)cc1Cc1cn(CC2CCCCO2)nn1 (stereo not drawn) [Compound I-299],> 3000,,
"Cc1cc(C#CCn2ccnn2)cnc1-c1cn(CC2CCCCO2)nn1 (stereo not drawn) [Compound I-841, 5-(3-(1H-1,2,3-triazol-1-yl)prop-1-yn-1-yl)-3-methyl-2-(1-((tetrahydro-2H-pyran-2-yl)methyl)-1H-1,2,3-triazol-4-yl)pyridine]",,,inhibition at 2 µM: > 75%
Cc1cc(N2CCC[C@@H](N(C)Cc3ccccc3)C2)ccc1-c1cn(C[C@H]2CCCCO2)nn1 (relative stereo) [Compound I-238],1000 to 3000,50 to 75,
Cc1cc(N2CCC(N(C)C)CC2)ccc1-c1cn(CC2CCCCO2)nn1 (stereo not drawn) [Compound I-129],,≤ 25,
Cc1cc(Cn2cc(-c3ccc(C#CC4CC4)cc3C)nn2)on1 [Compound I-557],,,inhibition at 2 µM: ≤ 25%
Cc1cc(N2CC3(CCCN3C)C2)ccc1-c1cn(CC2CCCCO2)nn1 (stereo not drawn) [Compound I-148],,50 to 75,
Cc1cc(N2CCN(Cc3cnccn3)CC2)ccc1-c1cn(CC2CCCCO2)nn1 (stereo not drawn) [Compound I-577],,25 to 50,
C(#CC1CC1)c1cccc(-c2nnn(CC3COCCO3)n2)c1 (stereo not drawn) [Compound I-6],,,inhibition at 25 µM: ≤ 25%
Cc1cc(C(=O)Nc2cc[nH]n2)ccc1-c1cn(CC2CCCCO2)nn1 (stereo not drawn) [Compound I-559],,≤ 25,
CS(=O)(=O)c1cc(C#CC2CC2)ccc1-c1cn(CC2CCCCO2)nn1 (stereo not drawn) [Compound I-219],,≤ 25,
Cc1cc(C#CC2CC2)ccc1-c1cn(CC2CN(C)CCO2)nn1 (stereo not drawn) [Compound I-181],,≤ 25,
"O=c1oc(CC2COCCO2)nn1-c1ccc(C#CC2CC2)cc1 (stereo not drawn) [Compound I-10, 5-((1,4-dioxan-2-yl)methyl)-3-(4-(cyclopropylethynyl)phenyl)-1,3,4-oxadiazol-2(3H)-one]",,,inhibition at 25 µM: ≤ 25%
Cc1cc(N2CC(N(C)C)C2)ccc1-c1cn(CC2CCCCO2)nn1 (stereo not drawn) [Compound I-114],,≤ 25,
CCc1cc(C#CC2CC2)cnc1-c1cn(CC2CCOCC2)nn1 [Compound I-274],,50 to 75,
Cc1cc(N2CC3(CCCN3Cc3ccccn3)C2)ccc1-c1cn(CC2CCCCO2)nn1 (stereo not drawn) [Compound I-590],,≤ 25,
COC(c1cn(CC2CCCCO2)nn1)c1cc(C#CC2CC2)ccc1F (stereo not drawn) [Compound I-621],,50 to 75,
Cc1cc(N2CC(C)(C)C2)c(C#CC2CC2)cc1-c1cn(C[C@H]2CCCCO2)nn1 [Compound I-435],,≤ 25,
Cc1ccc(-c2ccc(-c3cn(C[C@H]4CCCO4)nn3)cc2)cn1 [Compound I-31],,,inhibition at 25 µM: ≤ 25%
